{"source": "patent US11597911B2", "about": "“Expansion of populations of T cells by the use of modified serum free media” (Life Technologies Corporation, priority 2017, dated 2023)", "key": {"Primary human T cells": {"system": "Primary human T cells", "experiment": "T cell expansion in serum-free medium with glucose, galactose or mixtures", "format": "cell-based", "settings": "final sugar 6 g/L; lipid concentrate 1:100; CD3/CD28 beads; counted days 5-12; FIG. 3", "from_the_text": "FIG. 3 is a graph depicting that galactose alone is suboptimal for human T cell expansion. Primary human T cells from normal donors were negatively isolated from PBMCs with DYNABEADS® UNTOUCHED™ Human T Cells kit. T cells (seeding density 1×10^6/mL) were activated with DYNABEADS® Human T-Expander CD3/CD28 at a ratio of 3 beads per T cell and cultured in serum-free medium supplemented with GIBCO™ Chemically Defined Lipid Concentrate (1:100) and either d-glucose, d-galactose or mixtures of glucose and galactose as indicated; final concentration of sugar was 6 g/L in all conditions. T cells were fed and counted on days 5, 7, 10 and 12 on a Beckman-Coulter ViCell analyzer. Cell expansion is expressed as cumulative viable T cells over time. Results are representative of at least 3 independent experiments.\nPrimary human T cells from normal donors were negatively isolated from PBMCs with DYNABEADS® UNTOUCHED™ Human T Cells kit. […] T cells were fed and counted on days 5, 7, 10 and 12 on a Beckman-Coulter ViCell analyzer. Cell expansion is expressed as cumulative viable T cells over time. […]"}, "[1]": {"system": "Naïve and Central Memory CD4+ T cells", "experiment": "Expansion and cytokine production of sorted CD4+ T cell subsets in limited glucose:galactose media", "format": "cell-based, human", "settings": "in the presence of low glucose; FIG. 21", "from_the_text": "Bulk CD4+ T cells were sorted into Tregs, Naïve, Tcm (central memory), and Tem (effector memory) subsets based on the markers CD25, CD45RA, CD62L, and CCR7. Based on FIG. 20, T cells of different subpopulations may be sorted through use of FACS. […] Expanded naïve CD4+ T cells preserve the naïve phenotype when grown in limited glucose, as witnessed through FACS analysis (see FIG. 22 and FIG. 23).\nWhile good expansion of T cells can be achieved in media containing multiple ratios of glucose and galactose, ratios with limiting glucose can have a negative impact in interferon gamma production. There is evidence that interferon-gamma expression is regulated via GAPDH in T-cells (Chang, et al Cell. 2013 June 6; 153(6): 1239-1251) thus excessively limiting glycolysis during T cell expansion can impair IFN-γ production. […] Central memory T cells appear not to be effected by glucose level. […] Primary human CD4+ T cells from normal donors isolated via negative selection were obtained from UPenn Human Immunology Core Facility. Cells were separated by flow cytometric sorting into Naïve (CD45RA+/CD27+/CCR7+), and Central Memory (CD45RA−/CD27+/CCR7+), subsets. […] T cells were fed and counted on days 5, 7, 10 and 12 on a Beckman-Coulter Multisizer 3. […]"}}, "data": [{"smiles": "O=C[C@H](O)[C@@H](O)[C@@H](O)[C@H](O)CO", "note": "[D-galactose]", "values": [{"measurement": "in vitro T cell expansion (cumulative viable T cells over time)", "setting": "Primary human T cells", "value": "not sufficient to support optimal in vitro T cell expansion"}, {"measurement": "expansion of naïve T cells", "setting": "[1]", "value": "high rate of expansion"}]}]}
